How the values were obtained:
β2-GPI [1] = target: T1, β2-GPI (Homo sapiens, UniProt P02749); experiment: ELISA using a plate coated with the ligand, β2-GPI binding detected by anti-β2-GPI antibody; settings: immobilized lipid; for β2-GPI-binding(OD) w/Cof-22, value in parentheses / β2-GPI-binding(OD) w/EY2C9, value in parentheses / β2-GPI-binding(OD) w/WB-CAL-1, value in parentheses: not explained (method: presence or absence of β2-GPI); for β2-GPI-binding(OD) w/Cof-22: detection with Cof-22; for β2-GPI-binding(OD) w/Cof-22 / β2-GPI-binding(OD) w/EY2C9 / β2-GPI-binding(OD) w/WB-CAL-1: upper value of the pair; for β2-GPI-binding(OD) w/EY2C9: detection with EY2C9; for β2-GPI-binding(OD) w/WB-CAL-1: detection with WB-CAL-1
T1 construct: β2-GPI was purified from plasma in healthy persons; from tissue; host or cells: pooled human plasma from healthy persons
T1 sequence (P02749 20-345): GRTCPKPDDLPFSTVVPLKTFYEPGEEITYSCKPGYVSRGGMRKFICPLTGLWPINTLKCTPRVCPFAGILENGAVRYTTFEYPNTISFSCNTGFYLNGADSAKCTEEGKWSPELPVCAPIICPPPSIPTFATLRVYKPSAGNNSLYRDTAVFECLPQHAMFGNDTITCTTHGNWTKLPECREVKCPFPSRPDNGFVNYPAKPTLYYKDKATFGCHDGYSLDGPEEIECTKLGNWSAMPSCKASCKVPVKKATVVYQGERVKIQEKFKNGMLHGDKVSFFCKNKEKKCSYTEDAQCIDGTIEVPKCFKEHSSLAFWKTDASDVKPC
Description: (7) ELISA for Detection of Anti-β2-GPI/Lipid IgG Antibody
CL (derived from bovine heart, manufactured by Sigma), oxLig-1 or 9-COOH-22KC (50 μg/ml ethanol, 50 μl/well) was adsorbed by evaporation onto a polystyrene plate (Immulon 1B; Dynex Technologies Inc.), and this plate was blocked with 1% BSA. In each well, the purified monoclonal autoantibody or serum sample (100-fold dilution) was incubated for 1 hour in the presence or absence of β2-GPI (25 μg/ml), and then HRP-labeled anti-mouse IgG or anti-human IgG or IgM was added to each well.
The subsequent step was carried out according to the method described in the “ELISA for detection of β2-GPI/oxLDL complex”. The optical density (OD) of each sample was corrected by the average OD of the blank wells, and its antibody titer was calculated by using the positive standard in the living body. When the antibody titer in a sample was more than 3 times as high as the standard deviation of the mean of plasma samples from 50 healthy persons, the sample was expressed as positive.

β2-GPI [2] = target: T1, β2-GPI; experiment: Ligand blotting analysis on a TLC plate; format: binding; settings: detection by Cof-22 antibody and EY2C9 antibody; FIG. 1
Description: FIG. 1 is a graph showing ligand blotting analysis of two ω-carbdxylmutants (oxLig-1 and 9-COOH-22KC) of oxysterol ester. The ligand developed on a TLC plate was stained with I2 vapor (A), and the ligand blotting was conducted by using anti-β2-GPI antibody (Cof-22 (B) and EY2C9 (C)).
(5) Ligand Blotting Analysis on a Thin-Layer Chromatography (TLC) Plate
For conducting TLC ligand blotting, the lipid was spotted on a Polygram silica gel G plate (manufactured by Machery-Nagel) and developed with chloroform/methanol (8/1, v/v). The ligand blotting analysis was conducted according to a method described in [reference 7]. That is, the plate was dried and blocked with PBS containing 1% bovine serum albumin (BSA), and then the plate was incubated for 1 hour together with the β2-GPI and anti-β2-GPI antibodies (Cof-22 and EY2C9). Then, the plate was incubated for 1 hour with horseradish peroxidase (HRP)-labeled anti-mouse IgG antibody or anti-human IgM antibody. Between each step, the plate was washed sufficiently with PBS. Coloration was conducted using H2O2 and 4-methoxy-1-naphthol. In a TLC plate of control, the separated ligand was stained with I2 vapor.

| Compound | β2-GPI-binding(OD) w/Cof-22, value in parentheses (β2-GPI [1]) | β2-GPI-binding(OD) w/EY2C9, value in parentheses (β2-GPI [1]) | β2-GPI-binding(OD) w/WB-CAL-1, value in parentheses (β2-GPI [1]) | β2-GPI-binding(OD) w/Cof-22 (β2-GPI [1]) | β2-GPI-binding(OD) w/EY2C9 (β2-GPI [1]) | β2-GPI-binding(OD) w/WB-CAL-1 (β2-GPI [1]) | β2-GPI binding in ligand blotting (β2-GPI [2]) |
| --- | --- | --- | --- | --- | --- | --- | --- |
| CC(C)CCC(=O)[C@@H](C)[C@H]1CC[C@H]2[C@@H]3CC=C4C[C@@H](OC(=O)CCCCCCCCC(=O)O)CC[C@]4(C)[C@H]3CC[C@]12C [9-COOH-22KC, 22-Ketocholesteryl-9-carboxynonanoate] | (0.067 +/− 0.013) OD | (0.046 +/− 0.008) OD | (0.031 +/− 0.011) OD | 0.217 +/− 0.016 OD | 0.130 +/− 0.024 OD | 0.063 +/− 0.004 OD | – |
| CC(C)CCC[C@@H](C)[C@H]1CC[C@H]2[C@@H]3C(=O)C=C4C[C@@H](OC(=O)CCCCCCCCC(=O)O)CC[C@]4(C)[C@H]3CC[C@]12C [oxLig-1, 7-ketocholesteryl-9-carboxynonanoate] | (0.041 +/− 0.001) OD | (0.013 +/− 0.001) OD | (0.013 +/− 0.004) OD | 1.194 +/− 0.099 OD | 0.878 +/− 0.031 OD | 0.441 +/− 0.007 OD | bound predominantly |

Reference: US7455976B2, “Method of measuring oxidized LDL/β2-glycoprotein I complex occurring in the living body” (priority 2002, dated 2008)
